Reference: EP2511272B1, “Synthetic analogues of abscisic acid with anti-inflammatory and insulin release stimulation effects on human cells” (Universita' degli Studi di Genova, priority 2011, dated 2012)

System: human granulocytes
Test: Determination of intracellular cAMP levels (inhibition of ABA-induced cAMP increase)
Assay type: cell-based
Method: Human granulocytes, after being incubated overnight (ON) in DMEM/F12 supplemented with 10% of foetal bovine serum (FCS), penicillin (50 units/ml) and streptomycin (50 µg/ml) (DMEM/F12 complete), were centrifuged at 200xg for 5 min and were then resuspended in HBSS (Hanks' Balanced Salt Solution) with calcium and magnesium (15 x 10^6 cells /200 µl) and preincubated for 5 minutes at 25 °C in the presence of 10 µM of phosphodiesterase inhibitor 4-[(3-butoxy-4-methoxyphenyl)-methyl]-2-imidazolidinone (Ro-20-1724). Two hundred (200) µl of suspension were then drawn and were incubated for 1 minute with 1 µM ABA (Sigma-Aldrich) either alone, or in the presence of decreasing concentrations (from 50 µM to 0.01 nM) of test compounds obtained according to the preceding examples. The reaction was terminated by the addition of 13 µl of perchloroacetic acid (PCA) to the end concentration of 0.6 M at 4 °C.
The cell lysates were centrifuged for 5 min at 17,000 x g at 4 °C and the supernatant was adjusted at pH 7.5 with 3 M potassium carbonate (K2CO3). The reaction led to the development of gas CO2 and the formation of a white precipitate of potassium perchlorate (KClO4), which was removed by a 5-minute centrifugation at 17,000xg at 4 °C.
Intracellular concentration of cAMP was determined by means of the competitive radioimmunological test [^3H]cAMP assay system (Amersham, GE Healthcare), following manufacturer's instructions..
The experiments were carried out three times, in triplicate.
Tests were carried out on human granulocytes according to the above explained procedure, in which the production of cAMP was compared to a group of control cells in case of treatment with ABA 1 µM and with ABA 1 µM + tested compound 50 µM.

CC(=C/C(=O)O)/C=C/C1(O)C(C)(C)CC(=O)C2OC21C (single isomer, unassigned) [Example 1, trans, 2'α,3'α-dihydro-2'α,3'α-epoxyabscisic acid]
inhibition at 50 µM (ABA 1 µM + tested compound 50 µM, read-out: inhibition (production of cAMP)): 100%
inhibition at 10 pM (cAMP increase induced by 1 µM ABA, compound 0.01 nM): 0%
inhibition at 0.0001 µM (cAMP increase induced by 1 µM ABA, compound 0.1 nM): 25%
inhibition at 0.001 µM (cAMP increase induced by 1 µM ABA, compound 1 nM): 57%
inhibition at 0.1 µM (cAMP increase induced by 1 µM ABA, compound 100 nM): 100%
inhibition at 1 µM (cAMP increase induced by 1 µM ABA, compound 1 µM): 100%
inhibition at 5 µM (cAMP increase induced by 1 µM ABA, compound 5 µM): 100%
inhibition at 10 µM (cAMP increase induced by 1 µM ABA, compound 10 µM): 100%
IC50 (increase in cAMP concentration induced by 1 µM ABA): ~1 nM
